Data on 1 compound can be found in patent publication US20080248077A1, “Formulation” (ASTRAZENECA AB, priority 2005, published 2008).

Usually solubility stands for the concentration that dissolves in the medium under given conditions.

This series is described as follows: water solubility of anastrozole. Format: physicochemical.

SMILES strings stand for the structures. Values after ≈ are worked out from the molar mass of the structure shown. Where two headings read alike, the source gives them in different places.

For `CC(C)(C#N)c1cc(Cn2cncn2)cc(C(C)(C)C#N)c1` [anastrozole, Anastrozole], the solubility came to 530 µg/mL (≈ 1810 µM) (at 25° C., read-out: water solubility) and 530 µg/mL (≈ 1810 µM) (read-out: aqueous solubility).
